Source: US20240366648A1, “NAD-AUGMENTATION THERAPY FOR PARKINSON'S DISEASE” (Vestlandets Innovasjonsselskap AS (VIS), priority 2021, published 2024)

Tested on: cerebral metabolism
Assay: FDG-PET metabolic brain network analysis (NRRP/PDRP), phase I trial
Format: in vivo, human
Method: PET-MRI imaging was performed with a 3T Siemens Biograph mMR scanner, software version VE11P-SPO3. Subjects were administered 200 MBq of 18F Fluorodeoxyglucose (FDG) before being positioned in the scanner. After 31P-MRS spectra had been acquired, an 8-channel Siemens mMR Head coil was used for further MR imaging, which was performed simultaneously with FDG PET. In all subjects, PET acquisition began 25 to 30 minutes after the injection of FDG and lasted 30 minutes. The resulting emission data were reconstructed using Siemens HD-PET algorithm with Siemens HiRes Brain MRAC, with voxel size of 2.3×2.3×5.0 mm^3. PET images were anonymized and archived as DICOM files with a matrix size of 344×344×127 and an isotropic voxel size of 2.09×2.09×2.03 mm^3.
FDG-PET scans were transferred electronically to the Center for Neurosciences at The Feinstein Institutes for Medical Research (Manhasset, NY, USA) and analyzed using automated computing pipelines implemented in MATLAB 7.5 (MathWorks, Natick, MA) using in-house Scan Analysis and Visualization (ScAnVP) software (available at http://feinsteinneuroscience.orq). Images were first pre-processed using Statistical Parametric Mapping (SPM8) software (http://fil.ion.ucl.ac.uk/spm; Wellcome Centre for Human Neuroimaging, London, UK). Of the 30 participants, the baseline scan of one NR subject was excluded on technical grounds. In the remaining subjects, FDG-PET scans acquired at visit 1 and visit 2 were aligned to produce a mean image, which was spatially normalized in standard Montreal Neurological Institute (MNI) anatomic space along with the individual scans from each time point. The normalized images were then smoothed with a 10-mm Gaussian filter in three dimensions to enhance the signal to noise ratio.
For the PET-analyses, the subjects in the NR group were classified based on their cerebral NAD-response, measured by 31P-MRS. Subjects showing increased cerebral NAD levels at visit 2 were termed “MRS-responders,” whereas subjects showing no increase in cerebral NAD were termed “MRS non-responders”.
To identify an NR-related metabolic pattern (NRRP), we analyzed paired metabolic scan data from the 10 MRS responders in the NR group (ATP-beta; NAD-total; ATP-alpha; ATP-gamma; PCr (Phosphocreatine); MP (membrane phospholipids); GPC (glycerophosphocholine); GPE (glycerophosphoethanolamine); Pi (inorganic phosphate); Pc (phosphocholine); PE (phosphoethanolamine); Total NAD/PCr; Total NAD/ATP-alpha) using ordinal trends/canonical variates analysis (OrT/CVA), a supervised form of principal component analysis (PCA) (Habeck C, Krakauer J W, Ghez C, Sackeim H A, Eidelberg D, Stern Y et al. A new approach to spatial covariance modeling of functional brain imaging data: ordinal trend analysis. Neural computation 2005; 17: 1602-1645).
This multivariate approach is designed to detect and quantify regional covariance patterns (i.e., metabolic networks) for which expression values (i.e., subject scores) increase or decrease with treatment in all or most of the subjects (Niethammer M, Tang C C, Vo A, Nguyen N, Spetsieris P, Dhawan V et al. Gene therapy reduces Parkinson's disease symptoms by reorganizing functional brain connectivity. Science translational medicine 2018; 10; Ko J H, Feigin A, Mattis P J, Tang C C, Ma Y, Dhawan V et al. Network modulation following sham surgery in Parkinson's disease. The Journal of clinical investigation 2014; 124: 3656-3666). […] Likewise, the reliability of the voxel loadings (i.e., region weights) on the resulting network topography was assessed using bootstrap resampling procedures (Mure H, Hirano S, Tang C C, Isaias I U, Antonini A, Ma Y et al. Parkinson's disease tremor—related metabolic network: characterization, progression, and treatment effects. Neuroimage 2011; 54: 1244-1253; Habeck C, Stern Y. Multivariate data analysis for neuroimaging data: overview and application to Alzheimer's disease. Cell biochemistry and biophysics 2010; 58: 53-67). […]

SMILES: NC(=O)c1ccc[n+]([C@@H]2O[C@H](CO)[C@@H](O)[C@H]2O)c1 [NR, nicotinamide riboside]
- NR-related metabolic pattern (NRRP) topography (10 MRS responders, OrT/CVA, PC1): bilateral metabolic reductions in the caudate and putamen, extending into the adjacent globus pallidus, and in the thalamus
- Zmax, reduced metabolic activity as part of the NRRP network (Anterior Cingulate (left), BA 32, MNI −4,44,18): 2.2
- Zmax, reduced metabolic activity as part of the NRRP network (Anterior Cingulate (right), BA 24, MNI 4,8,48): 2.3
- Zmax, reduced metabolic activity as part of the NRRP network (Anterior Cingulate (right), BA 32, MNI 4,46,−8): 2.6
- Zmax, reduced metabolic activity as part of the NRRP network (Lentiform Nucleus (left), Putamen, MNI −20,10,−8): 3.5
- Zmax, reduced metabolic activity as part of the NRRP network (Lentiform Nucleus (left), Putamen, MNI −28,−2,−2): 3.3
- Zmax, reduced metabolic activity as part of the NRRP network (Lentiform Nucleus (right), Putamen, MNI 22,10,−8): 3.9
- subjects with increased NRRP expression (MRS responders, p=0.018 permutation test): 8 of 10
- Zmax, reduced metabolic activity as part of the NRRP network (Middle Frontal Gyrus (left), BA 8, MNI −26,30,42): 1.9
- ordinal trend in NRRP expression (NR group as a whole, p=0.027 permutation test): remained significant
- correlation (r) of changes in NRRP expression with changes in UPDRS motor ratings, after excluding one data point (NR group, excluding greatest increase in UPDRS motor score, p=0.048): −0.556
- correlation (r) of changes in NRRP expression with changes in UPDRS motor ratings (NR group, p=0.026): −0.59
- correlation of PDRP changes with clinical outcome (NR group, p=0.73): no correlation
- Zmax, reduced metabolic activity as part of the NRRP network (Posterior Cingulate (bilateral), BA 31, MNI 0,−30,36): 3.5
- Zmax, reduced metabolic activity as part of the NRRP network (Precuneus (left), BA 7, MNI −6,−72,40): 2.6
- Zmax, reduced metabolic activity as part of the NRRP network (Prefrontal Cortex (right), BA 9, MNI 44,16,30): 3.0
- Zmax, reduced metabolic activity as part of the NRRP network (Superior Frontal Gyrus (left), BA 9, MNI −32,44,28): 2.5
- Zmax, reduced metabolic activity as part of the NRRP network (Superior Frontal Gyrus (left), BA 10, MNI −28,56,6): 2.5
- Zmax, reduced metabolic activity as part of the NRRP network (Thalamus (left), Anterior, MNI −10,−22,4): 2.5
- Zmax, reduced metabolic activity as part of the NRRP network (Thalamus (right), Medial Dorsal, MNI 8,−18,4): 3.0
